Reference: patent US11717508B2, “Compounds, compositions, and methods for inhibiting bacterial growth” (priority 2016, dated 2023)
Values joined by “and” are separate entries in the source; they are usually repeats but may differ in a detail not shown here. Equal values may be shown once. Read-outs that look alike come from different tables or passages of the source.

Key:
CDC1551(ΔdosR) mutant = assay type: cell-based; details: for Counts per million (CPM): DosR mutant treated with HC101A, replicates 1, 2; for log2 Fold change: DosR mutant, HC101A vs DMSO
DosS = assay type: biochemical, Mycobacterium tuberculosis
DosRST regulon = assay type: cell-based; details: 40 μM, 6 days
[1] = tested on: DosR-regulated genes (dosR, hspX and tgs1); assay type: cell-based, Mycobacterium tuberculosis
DosT = DosT (Mycobacterium tuberculosis, UniProt P9WGK1, G115L); assay type: biochemical

## C[C@@H]1CC[C@H]2[C@@H](C)C(=O)O[C@@H]3O[C@]4(C)CC[C@@H]1[C@]32OO4 [HC101A, artemisinin, reference compound]
CDC1551(ΔdosR) mutant; gene MT1854 Rv1804c
  Counts per million (CPM): 12.83 CPM and 20.46 CPM
  log2 Fold change: −1.101
CDC1551(ΔdosR) mutant; gene MT1893 Rv1845c
  log2 Fold change: 1.059
CDC1551(ΔdosR) mutant; gene MT1922 Rv1873
  Counts per million (CPM): 11.35 CPM and 17.72 CPM
  log2 Fold change: −1.314
CDC1551(ΔdosR) mutant; gene MT1969 Rv1918c PPE
  Counts per million (CPM): 90.23 CPM and 98.57 CPM
  log2 Fold change: −1.009
CDC1551(ΔdosR) mutant; gene MT2040 Rv1986
  Counts per million (CPM): 79.07 CPM and 31.42 CPM
  log2 Fold change: −2.384
CDC1551(ΔdosR) mutant; gene MT2126 Rv2066 cobl
  log2 Fold change: 1.049
CDC1551(ΔdosR) mutant; gene MT2166 Rv2107 PE
  Counts per million (CPM): 25.86 CPM and 35.24 CPM
  log2 Fold change: −1.899
CDC1551(ΔdosR) mutant; gene MT2167 Rv2108 PPE
  Counts per million (CPM): 31.6 CPM and 38.76 CPM
  log2 Fold change: −1.672
CDC1551(ΔdosR) mutant; gene MT2168
  Counts per million (CPM): 9.545 CPM and 9.201 CPM
  log2 Fold change: −1.358
CDC1551(ΔdosR) mutant; gene MT2264 Rv2208 cobS
  log2 Fold change: 1.264
CDC1551(ΔdosR) mutant; gene MT2278 Rv2220 glnA1
  Counts per million (CPM): 635.9 CPM and 701.1 CPM
  log2 Fold change: −1.188
CDC1551(ΔdosR) mutant; gene MT2284 Rv2225 panB
  Counts per million (CPM): 197.5 CPM and 213.5 CPM
  log2 Fold change: −1.005
CDC1551(ΔdosR) mutant; gene MT2304 Rv2244 acpM
  Counts per million (CPM): 831.8 CPM and 1,835.61 CPM
  log2 Fold change: −1.454
CDC1551(ΔdosR) mutant; gene MT2305 Rv2245 kasA
  Counts per million (CPM): 1,175.19 CPM and 2,060.94 CPM
  log2 Fold change: −1.196
CDC1551(ΔdosR) mutant; gene MT2306
  Counts per million (CPM): 704.1 CPM and 1,234.02 CPM
  log2 Fold change: −1.017
CDC1551(ΔdosR) mutant; gene MT2391 Rv2329c narK1
  Counts per million (CPM): 72.04 CPM and 74 CPM
  log2 Fold change: −1.058
CDC1551(ΔdosR) mutant; gene MT2417
  Counts per million (CPM): 8.836 CPM and 16.05 CPM
  log2 Fold change: −1.114
CDC1551(ΔdosR) mutant; gene MT2503 Rv2428 ahpC
  Counts per million (CPM): 372.7 CPM and 897.9 CPM
  log2 Fold change: −1.173
CDC1551(ΔdosR) mutant; gene MT2504 Rv2429 ahpD
  Counts per million (CPM): 163.9 CPM and 315.8 CPM
CDC1551(ΔdosR) mutant; gene MT2506
  Counts per million (CPM): 236.2 CPM and 203 CPM
  log2 Fold change: −1.06
CDC1551(ΔdosR) mutant; gene MT2526 Rv2450c
  Counts per million (CPM): 892.4 CPM and 239.7 CPM
  log2 Fold change: −1.032
CDC1551(ΔdosR) mutant; gene MT2615 Rv2540c aroF
  log2 Fold change: 1.402
CDC1551(ΔdosR) mutant; gene MT2631
  log2 Fold change: 1.063
CDC1551(ΔdosR) mutant; gene MT2698 Rv2623
  Counts per million (CPM): 41.08 CPM and 44.83 CPM
  log2 Fold change: −1.072
CDC1551(ΔdosR) mutant; gene MT2778 Rv2705c
  Counts per million (CPM): 45.21 CPM and 56.67 CPM
  log2 Fold change: −1.01
CDC1551(ΔdosR) mutant; gene MT2849 Rv2779c
  Counts per million (CPM): 26.89 CPM and 12.92 CPM
  log2 Fold change: −1.668
CDC1551(ΔdosR) mutant; gene MT2850 Rv2780 ald
  Counts per million (CPM): 1,263.03 CPM and 369.1 CPM
  log2 Fold change: −1.861
CDC1551(ΔdosR) mutant; gene MT2863 Rv2794c
  log2 Fold change: 1.021
CDC1551(ΔdosR) mutant; gene MT3065 Rv2987c leuD
  Counts per million (CPM): 140.2 CPM and 20.16 CPM
  log2 Fold change: −1.094
CDC1551(ΔdosR) mutant; gene MT3110 Rv3026c
  log2 Fold change: 1.612
CDC1551(ΔdosR) mutant; gene MT3118 Rv3033
  Counts per million (CPM): 22.06 CPM and 33.57 CPM
CDC1551(ΔdosR) mutant; gene MT3132
  Counts per million (CPM): 35.54 CPM and 21.04 CPM
  log2 Fold change: −1.912
CDC1551(ΔdosR) mutant; gene MT3133 Rv3048c nrdG
  log2 Fold change: −2.008
CDC1551(ΔdosR) mutant; gene MT3134 Rv3049c
  log2 Fold change: −2.181
CDC1551(ΔdosR) mutant; gene MT3178 Rv3094c
  log2 Fold change: −1.319
CDC1551(ΔdosR) mutant; gene MT3293 Rv3199c
  log2 Fold change: 1.039
CDC1551(ΔdosR) mutant; gene MT3327 Rv3230c
  log2 Fold change: 1.145
CDC1551(ΔdosR) mutant; gene MT3441 Rv3338
  log2 Fold change: −1.641
CDC1551(ΔdosR) mutant; gene MT3481 Rv3371
  log2 Fold change: −1.101
CDC1551(ΔdosR) mutant; gene MT3498 Rv3391 acrA1
  log2 Fold change: −1.036
CDC1551(ΔdosR) mutant; gene MT3581 Rv3477 PE
  log2 Fold change: −1.558
CDC1551(ΔdosR) mutant; gene MT3591 Rv3487c lipF
  log2 Fold change: −1.301
CDC1551(ΔdosR) mutant; gene MT3947 Rv3839
  log2 Fold change: −1.144
CDC1551(ΔdosR) mutant; gene MT3963 Rv3848
  log2 Fold change: −1.017
CDC1551(ΔdosR) mutant; gene MT3969 Rv3854c
  log2 Fold change: −2.018
CDC1551(ΔdosR) mutant; gene MT3970 Rv3855
  log2 Fold change: −1.5
CDC1551(ΔdosR) mutant; gene MT3976 Rv3862c
  log2 Fold change: −1.387
CDC1551(ΔdosR) mutant; gene MT3978 Rv3864
  log2 Fold change: −1.324
CDC1551(ΔdosR) mutant; gene MT3988 Rv3874
  log2 Fold change: −1.066
CDC1551(ΔdosR) mutant; gene MT3989 Rv3875 esat6
  log2 Fold change: −1.043
DosS
  oxidation of DosS (E87L) and DosS (G117L) proteins by artemisinin: resistant to oxidation
DosRST regulon
  genes inhibited that are not modulated in the CDC1551(ΔdosR) mutant: 157 genes
DosRST regulon; >2-fold, p<0.05
  genes downregulated by compound that are also downregulated in the CDC1551(ΔdosR) mutant: 85 genes
[1]
  resistance to artemisinin of DosT (G115L) vs WT DosT or DosT (G85L): ~5 fold
DosT
  response of DosT (G115L) protein to artemisinin: exhibits artemisinin resistance
